PubChem BioAssay (NCI)
Values joined by “and” are separate entries in the source; they are usually repeats but may differ in a detail not shown here. Equal values may be shown once.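 Five concentrations, 48 hours, 96-well plates. At the GI50, growth is halved. TGI: total growth inhibition.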 Where a SMILES comes first, the peptide text is derived from it. [ ]: non-standard residue; d: D form. Phe(F5) = N[CH](Cc1c(F)c(F)c(F)c(F)c1F)C(=O)O

Columns and labels:
Test in all cases: inhibition of tumour cell growth, NCI panel, 48 h
PC-3 prostate = tested on: PC-3 prostate
NCI/ADR-RES ovarian = tested on: NCI/ADR-RES ovarian
UO-31 renal = tested on: UO-31 renal
EKVX NSCLC = tested on: EKVX NSCLC
SK-MEL-2 melanoma = tested on: SK-MEL-2 melanoma
TK-10 renal = tested on: TK-10 renal
MDA-MB-435 = tested on: MDA-MB-435
LOX IMVI melanoma = tested on: LOX IMVI melanoma
U251 CNS = tested on: U251 CNS
T-47D breast = tested on: T-47D breast

SMILES | GI50 (PC-3 prostate) [µM] | TGI (PC-3 prostate) [µM] | GI50 (NCI/ADR-RES ovarian) [µM] | TGI (NCI/ADR-RES ovarian) [µM] | GI50 (UO-31 renal) [µM] | TGI (UO-31 renal) | GI50 (EKVX NSCLC) [µM] | TGI (EKVX NSCLC) [µM] | TGI (SK-MEL-2 melanoma) [µM] | GI50 (TK-10 renal) [µM] | TGI (TK-10 renal) [µM] | GI50 (MDA-MB-435) [µM] | TGI (MDA-MB-435) [µM] | GI50 (LOX IMVI melanoma) [µM] | TGI (LOX IMVI melanoma) [µM] | GI50 (U251 CNS) [µM] | TGI (U251 CNS) [µM] | GI50 (T-47D breast) [µM] | TGI (T-47D breast) [µM] | GI50 (SK-MEL-2 melanoma) [µM]
CC1=C(C(=O)OCc2ccccc2)C(c2ccc3c(c2)OCO3)n2c(nc3ccccc32)N1 (stereo not given) | 0.458 | > 100 | 0.311 | > 100 | 0.544 | > 79.5 µM | 0.692 | > 100 | > 100 | > 100 | > 100 | 0.0842 | 0.351 | 0.566 | > 100 | 0.464 | > 100 | 0.508 | > 100 | 
Cc1cc(N2CCCCC2)nc(N(CCNc2ccnc3cc(Cl)ccc23)Cc2ccco2)n1 | 1.69 | 3.72 | 1.79 | 3.71 | 1.41 | 2.77 µM | 2.09 | 6.07 | 4.27 | 1.94 | 4.08 | 1.8 | 3.52 | 1.66 | 3.09 | 1.73 | 3.19 | 1.82 | 4.32 | 2.06
N#CC(C#N)=Cc1ccc(-c2ccc(-c3nc4ccccc4s3)cc2)o1 | 9.54 | 22.5 | 4.16 | 14.3 | 20.3 | > 100 µM | 25.7 | > 100 | > 100 | 17.2 | 36.9 | 25.4 | 81.8 | 15.1 | 30.3 | 12 | 24.8 | 4.46 | 38.2 | 63.2
N#CSc1ncnc2nc[nH]c12 | 28.7 | > 100 | 5.68 | > 100 | 10.4 | > 100 µM | 41.8 | > 100 | > 100 | 4.17 | > 100 | 3.65 | > 100 | 1.09 | > 91.6 | 32.4 | > 100 | 2.25 | > 80 | 37.6
CC12CCC=CC1CCC1C2CCC2(C)C(c3ccc(=O)oc3)CCC12O (stereo not given) | 0.0534 | 0.317 | 0.0475 | 0.247 | 0.0647 | 0.189 µM | 0.0636 | 0.193 | 0.828 | 0.0479 | 0.499 | 0.108 | 0.528 | 0.033 | 0.141 | 0.131 | 0.419 | 0.181 | 1.05 | 0.25
CCc1c(C)[nH]c(/C=C2\N=C(c3ccc[nH]3)C=C2OC)c1C | 0.153 | 10.8 | 0.17 | 6.42 | 0.176 | 0.591 µM | 0.707 | 9.93 | 0.989 | 0.276 | 8.85 | 0.0733 | 1.42 | < 0.0328 |  | 0.275 | 7.33 | 0.545 | 3.22 | 0.234
CN(C)c1ccc2nc3ccc(=[N+](C)C)cc-3oc2c1 | 0.52 | > 100 | 12.1 | 97.9 | 12.8 | 89.3 µM | 0.636 | 6.76 | 11.1 | 17.2 | 57.2 | 2.73 | 15.8 | 2.32 | 9.28 | 0.725 | 4.8 | 0.582 | 6.59 | 2.38
O=C(O)[C@@H]1C2CC([C@@H]1C(=O)O)[C@H](N1C(=O)CCC1=O)[C@@H]2Br (stereo not given in full) |  | > 100 |  | > 100 |  | > 100 µM |  | > 100 | > 100 |  | > 100 |  | > 100 |  | > 100 |  | > 100 |  | > 100 | 
CC1(C)CCC2(C(=O)OC3OC(CO)C(O)C(O)C3O)CC[C@]3(C)C(=CCC4C5(C)CC[C@H](OC6OC(C(=O)O)C(O)C(O)C6O)C(C)(C)C5CCC43C)C2C1 (stereo not given in full) | 1.26 | 3.47 | > 50 | > 50 | 12.7 | 31.8 µM | 3.39 | 36.6 | 10.7 | 1.85 | 10.3 | 2.52 | > 50 | 0.807 | 1.49 | 1.06 | 2.61 | 1.75 | 5.98 | 1.85
CC(C)(O)c1ccc(N2CCN(c3nnc(Cc4ccccc4)c4ccccc34)CC2)nc1 | 10.7 | > 56.5 | 4.09 | 46.8 | 3.49 | 19.5 µM | 4 | 19.8 | 26.2 | 13.4 | 38.1 | 10 | 22.8 | 14 | 35.5 | 13.2 | 37.3 | 2.71 | 14.6 | 9.57
CC12CCC(=O)C=C1CCC1C2CCC2(C)C(C(=O)Cn3cnc4c(=S)nc[nH]c43)CCC12 (stereo not given) |  | > 100 |  | > 100 |  | > 100 µM |  | > 100 | > 100 |  | > 100 |  | 96.4 |  | > 100 |  | > 100 |  | > 100 | 
O=S(=O)(c1ccc(NC(=S)NCc2cccnc2)cc1)N1CCCCC1 | 1.5 | > 100 | 8.36 | > 100 | 21.5 | > 100 µM |  |  | > 100 | 47.5 | > 100 | 3.04 | > 100 | 6.93 | > 100 | 1.82 | > 100 | 7.33 | > 100 | 16.6
CC12CCC(=O)C(O1)C1C(=O)c3cc4ccccc4cc3C(=O)C12 (stereo not given) | 16.8 | 43.4 | 21.3 | 57.2 | 42.5 | > 100 µM | 23.4 | 72.2 | > 100 | 16.6 | 33.6 | 17.7 | 34 |  |  | 19 | 43.7 | 14.9 | 39.4 | 46.4
Nc1nc(/C=C\c2ccc([N+](=O)[O-])o2)nc(N2CCN(c3ccccc3)CC2)n1 | 7.81 | 60.6 | 19.2 | 54.8 | 13.6 | 39.8 µM | 23.1 | > 100 | > 100 | 5.77 | 32 | 3.98 | 26 | 3.49 | 21.2 | 6.06 | 39.7 | 13.5 | 60 | 9.91
O=C1c2ccccc2C(=O)N1CC1(C(=O)O)NCCS1(=O)=O (stereo not given) |  | > 100 |  | > 100 |  | > 100 µM |  | > 100 | > 100 |  | > 100 |  | > 100 |  | > 100 |  | > 100 |  | > 100 | 
N#Cc1ncc(/N=C/c2ccc(N(CCCl)CCCl)cc2)s1 | 34.9 | > 100 | 7.36 | > 100 | 6.26 | 30 µM | 42.2 | > 100 | > 100 | 23.2 | 97.4 | 28.4 | > 100 | 6.89 | > 100 | 18.6 | > 100 | 6.71 | > 100 | 69.9
CCCN(Cc1ccc(F)cc1)c1ccc(CO)c(Cl)c1 | 11.6 | 24.6 | 9.52 | 22.9 | 2.65 | 13.9 µM |  |  | 13.3 | 0.0777 | 0.357 | 14.6 | 29 | 9.49 | 21.9 | 2.48 | 16.2 | 0.119 | 0.733 | 2.99
CC[C@H](Nc1nc(N)nc(C)c1C#N)c1nc2cccc(CN(C)c3ncc(C(=O)NO)cn3)c2c(=O)n1-c1ccccc1 | 1.33 | 8.14 | 11.4 | > 50 | 1 | 3.05 µM | 1.69 | 16.9 | 8.75 | 0.681 | 3.85 | 0.617 | 2.26 | 0.693 | 1.35 | 0.663 | 2.03 | 0.242 |  | 1.35
CSc1nnc(CCSc2ccnc3c(C(F)(F)F)cccc23)o1 | 88.4 | > 100 | 72.2 | > 100 | 86.8 | > 100 µM | 9.21 | > 100 | > 100 | 70.1 | > 100 | > 100 | > 100 | > 100 | > 100 | > 100 | > 100 | 24.9 | > 100 | > 100
CN(C)CCCNC(=O)c1cc(NC(=O)CCNS(=O)(=O)c2ccc3c(c2)C(=O)c2ccccc2C3=O)cn1C | > 100 | > 100 | > 100 | > 100 | > 100 | > 100 µM | > 100 | > 100 | > 100 | > 100 | > 100 | > 100 | > 100 |  |  |  |  | > 100 | > 100 | > 100
COc1cccc(C2=C(c3cn(C)c4ccccc34)C(=O)NC2=O)c1 | 10.2 | > 25 | 8.43 | > 25 | 10.8 | > 25 µM |  |  | > 25 | 13.3 | > 25 | 6.38 | > 25 | 13 | > 25 | 10.9 | > 25 | 6.82 | > 25 | 8.79
COc1cc2nc(Cl)nc(Nc3cccc(C(=O)/C=C/c4ccccc4)c3)c2cc1OC | 3.86 | 27.8 | 4.26 | > 100 | 17.8 | > 100 µM | > 33.7 | > 100 | > 75.9 | 4.19 | 20 | 3.4 | 28.9 |  |  | 2.97 | > 38.1 | > 30.3 | > 100 | > 21
COC(=O)C(CC(C)C)NC(=O)C(Cc1cnc[nH]1)NC(=O)CNC(=O)C(NC(=O)C(C)NC(=O)C(Cc1c[nH]c2ccccc12)NC(=O)C(CCC(=O)O)NC(=O)C(N)Cc1c(F)c(F)c(F)c(F)c1F)C(C)C (stereo not given) (H-[Phe(F5)]EWAVGHL-OMe; configuration not given here) |  | > 12.5 |  | > 12.5 | 0.991 | > 12.5 µM and 56 µM | > 100 | > 100 | > 100 |  |  |  | > 12.5 |  | > 12.5 | > 100 | > 100 |  | > 12.5 | > 100
c1ccc2[nH]c(-c3ccc(N4CCN(c5ccc(-c6nc7ccccc7[nH]6)cc5)CC4)cc3)nc2c1 | > 100 | > 100 | > 100 | > 100 | > 100 | > 100 µM | 25.7 | > 100 |  | 37.9 | > 100 | > 100 | > 100 | > 100 | > 100 | 41.3 | > 100 | 30.4 | > 100 | 
CN(C)CCNC(=O)c1cccn2c(=O)c3cc4ccccc4cc3nc12 | 0.194 | > 22 | 0.101 | 0.468 |  |  | 0.353 |  | 1.32 | 0.399 | 9.8 | 0.181 | 1.19 | 0.0624 | 0.286 | 0.114 | 18 | 0.417 | 19 | 0.203
CC1Oc2cc3c(-c4c(O)cc(O)c5c(O)c6c(cc45)OC(C)C(C)C6=O)c(O)cc(O)c3c(O)c2C(=O)C1C (stereo not given) |  | 0.698 |  | 1.39 |  | 1.54 µM |  | 0.711 | 0.331 |  | 5.45 |  | 1.16 |  |  |  | 0.404 |  | 1.41 | 
